Values joined by “and” are separate entries in the source; they are usually repeats but may differ in a detail not shown here. Equal entries are not always repeated. Toxic doses and inconclusive results are not listed. The calls were made as follows: active = survival T/C of 150% or more; inactive = T/C below 125% in these data.
Tested on: P388 leukemia ip, CD2F1 mice, survival T/C
Assay: NCI In Vivo Anticancer Drug Screen. Data for tumor model P388 Leukemia (intraperitoneal) in CD2F1 (CDF1) mice
Conditions: endpoint: median survival time, higher = longer survival
How it was run: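 Mice carrying the transplanted tumor received test compound or vehicle. Survival was recorded in each group, and the value is the treated-group measurement divided by that of the vehicle-treated control group.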

[1] = dose: 60.0 mg/kg/injection, schedule: Q01DX005 (ip), vehicle: saline with Tween-80
[2] = dose: 120.0 mg/kg/injection, schedule: Q01DX005 (ip), vehicle: saline with Tween-80
[3] = dose: 240.0 mg/kg/injection, schedule: Q01DX005 (ip), vehicle: saline with Tween-80
[4] = dose: 50.0 mg/kg/injection, schedule: Q01DX005 (ip), vehicle: Klucel (hydroxypropylcellulose) (HPC)
[5] = dose: 100.0 mg/kg/injection, schedule: Q01DX005 (ip), vehicle: Klucel (hydroxypropylcellulose) (HPC)
[6] = dose: 200.0 mg/kg/injection, schedule: Q01DX005 (ip), vehicle: Klucel (hydroxypropylcellulose) (HPC)
[7] = dose: 6.25 mg/kg/injection, schedule: Q01DX009 (ip), vehicle: water
[8] = dose: 12.5 mg/kg/injection, schedule: Q01DX009 (ip), vehicle: water
[9] = dose: 25.0 mg/kg/injection, schedule: Q01DX009 (ip), vehicle: water
[10] = dose: 50.0 mg/kg/injection, schedule: Q01DX009 (ip), vehicle: water
[11] = dose: 25.0 mg/kg/injection, schedule: Q01DX009 (ip), vehicle: other

Measured: T/C

CC(=O)Oc1cc2c(cc1OC(C)=O)C(=O)c1cc3c(cc1C2=O)OCO3
inactive: [1] 107 % of control | [2] 120 % of control | [3] 108 % of control

OCC(O)C(O)C(O)C(O)C(O)c1nc2ccccc2[nH]1 (centres undefined)
inactive: [4] 98 % of control | [5] 102 % of control | [6] 100 % of control

CCNC(=O)CCC(NS(=O)(=O)c1ccc(C)cc1)C(=O)O (centres undefined)
inactive: dose: 100.0 mg/kg/injection, schedule: Q04DX002 (ip), vehicle: Klucel (hydroxypropylcellulose) (HPC) 100 % of control | dose: 200.0 mg/kg/injection, schedule: Q04DX002 (ip), vehicle: Klucel (hydroxypropylcellulose) (HPC) 100 % of control | dose: 400.0 mg/kg/injection, schedule: Q04DX002 (ip), vehicle: Klucel (hydroxypropylcellulose) (HPC) 105 % of control

CCc1nnc2c(C)c(C)nc(C)n12
inactive: dose: 100.0 mg/kg/injection, schedule: Q04DX003 (ip), vehicle: saline with Tween-80 94 % of control | dose: 200.0 mg/kg/injection, schedule: Q04DX003 (ip), vehicle: saline with Tween-80 100 % of control

COc1cc2c(c(OC)c1)C(O)=C1C(=O)C3C(O)=C(C(=O)NC(C)(C)C)C(=O)C(NC(=S)c4ccccc4)C3CC1C2 (centres undefined)
inactive: [1] 92 % of control | [2] 94 % of control | [3] 101 % of control

C[Si](C)(C)CN(Cc1ccccc1)C(=O)c1ccccc1[N+](=O)[O-]
inactive: dose: 50.0 mg/kg/injection, schedule: Q01DX005 (ip), vehicle: saline with Tween-80 105 % of control | dose: 100.0 mg/kg/injection, schedule: Q01DX005 (ip), vehicle: saline with Tween-80 98 % of control | dose: 200.0 mg/kg/injection, schedule: Q01DX005 (ip), vehicle: saline with Tween-80 103 % of control

Nc1nc(CON2C(=O)c3ccccc3C2=O)cs1
inactive: [4] 97 % of control | [5] 99 % of control | [6] 103 % of control

O=NNc1ncnc2c1ncn2Cc1ccccc1
inactive: dose: 3.12 mg/kg/injection, schedule: Q01DX009 (ip), vehicle: water 103 % of control | [7] 100 % of control | [8] 112 % of control | [9] 112 % of control | [10] 112 % of control

CN=C(NC)NCCSCc1ccc2ccccc2n1
inactive: dose: 12.5 mg/kg/injection, schedule: Q01DX005 (ip), vehicle: saline 115 % of control | dose: 25.0 mg/kg/injection, schedule: Q01DX005 (ip), vehicle: saline 118 % of control | dose: 50.0 mg/kg/injection, schedule: Q01DX005 (ip), vehicle: saline 102 % of control and 112 % of control

CNC(=O)OCc1nn(-c2ccc(Cl)cc2)c(C)c1COC(=O)NC
inactive: dose: 1.56 mg/kg/injection, schedule: Q01DX009 (ip), vehicle: distilled water + Tween-80 103 % of control | dose: 3.12 mg/kg/injection, schedule: Q01DX009 (ip), vehicle: distilled water + Tween-80 100 % of control | dose: 6.25 mg/kg/injection, schedule: Q01DX009 (ip), vehicle: distilled water + Tween-80 97 % of control | dose: 12.5 mg/kg/injection, schedule: Q01DX009 (ip), vehicle: distilled water + Tween-80 101 % of control and 89 % of control and 95 % of control | dose: 25.0 mg/kg/injection, schedule: Q01DX009 (ip), vehicle: distilled water + Tween-80 93 % of control | dose: 100.0 mg/kg/injection, schedule: Q01DX009 (ip), vehicle: distilled water + Tween-80 101 % of control and 93 % of control | dose: 200.0 mg/kg/injection, schedule: Q01DX009 (ip), vehicle: distilled water + Tween-80 102 % of control and 108 % of control

N=C(N)c1nc2ccccc2s1
inactive: dose: 12.5 mg/kg/injection, schedule: Q01DX009 (ip), vehicle: other 102 % of control | [11] 104 % of control | dose: 50.0 mg/kg/injection, schedule: Q01DX009 (ip), vehicle: other 93 % of control

CC(=O)O[C@@H]1[C@@H](O)C2=C3[C@]4(C)[C@@H]1C(C)(C)C(=O)C[C@@H]4[C@]3(O)[C@H](OC(C)=O)[C@@]1(C[C@@H]1C)C2=O
inactive: [11] 118 % of control | dose: 25.0 mg/kg/injection, schedule: Q01DX009 (ip), vehicle: saline with Tween-80 115 % of control

CCOC(=O)N[C@H]1CCc2cc(O)c(OC)c(OC)c2-c2ccc(SC)c(=O)cc21
inactive: dose: 1.25 mg/kg/injection, schedule: Q01DX009 (ip), vehicle: Klucel (hydroxypropylcellulose) (HPC) 120 % of control | dose: 10.0 mg/kg/injection, schedule: Q01DX009 (ip), vehicle: Klucel (hydroxypropylcellulose) (HPC) 109 % of control

CNc1nc(N(C)C)nc(N(C)C)n1
inactive: [7] 105 % of control and 96 % of control | [8] 105 % of control | dose: 16.0 mg/kg/injection, schedule: Q03HX008 (ip), vehicle: water 102 % of control | dose: 16.0 mg/kg/injection, schedule: Q03HX016 (ip), vehicle: water 96 % of control | dose: 16.0 mg/kg/injection, schedule: Q03HX024 (ip), vehicle: water 96 % of control | [9] 105 % of control | dose: 30.0 mg/kg/injection, schedule: Q01DX009 (ip), vehicle: water 104 % of control | dose: 32.0 mg/kg/injection, schedule: Q01DX005 (ip), vehicle: water 99 % of control | dose: 32.0 mg/kg/injection, schedule: Q01DX009 (ip), vehicle: water 86 % of control | dose: 32.0 mg/kg/injection, schedule: Q01DX009 (oral), vehicle: water 110 % of control | dose: 32.0 mg/kg/injection, schedule: Q01DX009 (sc), vehicle: water 106 % of control | dose: 32.0 mg/kg/injection, schedule: Q03HX008 (ip), vehicle: water 103 % of control | dose: 32.0 mg/kg/injection, schedule: Q03HX016 (ip), vehicle: water 100 % of control | dose: 32.0 mg/kg/injection, schedule: Q03HX024 (ip), vehicle: water 114 % of control | dose: 44.0 mg/kg/injection, schedule: Q01DX009 (ip), vehicle: water 104 % of control | [10] 112 % of control | dose: 64.0 mg/kg/injection, schedule: Q01DX001 (ip), vehicle: water 102 % of control | dose: 64.0 mg/kg/injection, schedule: Q01DX001 (oral), vehicle: water 103 % of control | dose: 64.0 mg/kg/injection, schedule: Q01DX005 (ip), vehicle: water 109 % of control | dose: 64.0 mg/kg/injection, schedule: Q01DX009 (ip), vehicle: water 93 % of control | dose: 64.0 mg/kg/injection, schedule: Q01DX009 (oral), vehicle: water 115 % of control | dose: 64.0 mg/kg/injection, schedule: Q01DX009 (sc), vehicle: water 117 % of control | dose: 64.0 mg/kg/injection, schedule: Q04DX003 (ip), vehicle: water 105 % of control | dose: 64.0 mg/kg/injection, schedule: Q08DX002 (ip), vehicle: water 103 % of control | dose: 67.0 mg/kg/injection, schedule: Q01DX009 (ip), vehicle: water 116 % of control | dose: 128.0 mg/kg/injection, schedule: Q01DX001 (ip), vehicle: water 102 % of control | dose: 128.0 mg/kg/injection, schedule: Q01DX001 (oral), vehicle: water 101 % of control | dose: 128.0 mg/kg/injection, schedule: Q01DX005 (ip), vehicle: water 99 % of control | dose: 128.0 mg/kg/injection, schedule: Q01DX009 (oral), vehicle: water 96 % of control | dose: 128.0 mg/kg/injection, schedule: Q01DX009 (sc), vehicle: water 86 % of control | dose: 128.0 mg/kg/injection, schedule: Q04DX003 (ip), vehicle: water 112 % of control | dose: 128.0 mg/kg/injection, schedule: Q08DX002 (ip), vehicle: water 114 % of control | dose: 256.0 mg/kg/injection, schedule: Q01DX001 (oral), vehicle: water 100 % of control

CCNC(=O)Oc1ccc[nH]c1=O
inactive: dose: 25.0 mg/kg/injection, schedule: Q01DX009 (sc), vehicle: water 100 % of control and 103 % of control | dose: 50.0 mg/kg/injection, schedule: Q01DX009 (ip), vehicle: saline 111 % of control and 114 % of control | dose: 50.0 mg/kg/injection, schedule: Q01DX009 (sc), vehicle: water 104 % of control and 109 % of control | dose: 100.0 mg/kg/injection, schedule: Q01DX009 (ip), vehicle: saline 122 % of control | dose: 100.0 mg/kg/injection, schedule: Q01DX009 (sc), vehicle: water 106 % of control and 109 % of control | dose: 200.0 mg/kg/injection, schedule: Q01DX009 (ip), vehicle: saline 118 % of control | dose: 200.0 mg/kg/injection, schedule: Q01DX009 (sc), vehicle: water 108 % of control and 118 % of control | dose: 400.0 mg/kg/injection, schedule: Q01DX009 (ip), vehicle: saline 119 % of control | dose: 400.0 mg/kg/injection, schedule: Q01DX009 (sc), vehicle: water 113 % of control
